pIC50: −log10 of the molar value.

One assay concerns the target T1, human ASK1 kinase (Homo sapiens, UniProt Q99683).
T1 sequence (Q99683 1-1374): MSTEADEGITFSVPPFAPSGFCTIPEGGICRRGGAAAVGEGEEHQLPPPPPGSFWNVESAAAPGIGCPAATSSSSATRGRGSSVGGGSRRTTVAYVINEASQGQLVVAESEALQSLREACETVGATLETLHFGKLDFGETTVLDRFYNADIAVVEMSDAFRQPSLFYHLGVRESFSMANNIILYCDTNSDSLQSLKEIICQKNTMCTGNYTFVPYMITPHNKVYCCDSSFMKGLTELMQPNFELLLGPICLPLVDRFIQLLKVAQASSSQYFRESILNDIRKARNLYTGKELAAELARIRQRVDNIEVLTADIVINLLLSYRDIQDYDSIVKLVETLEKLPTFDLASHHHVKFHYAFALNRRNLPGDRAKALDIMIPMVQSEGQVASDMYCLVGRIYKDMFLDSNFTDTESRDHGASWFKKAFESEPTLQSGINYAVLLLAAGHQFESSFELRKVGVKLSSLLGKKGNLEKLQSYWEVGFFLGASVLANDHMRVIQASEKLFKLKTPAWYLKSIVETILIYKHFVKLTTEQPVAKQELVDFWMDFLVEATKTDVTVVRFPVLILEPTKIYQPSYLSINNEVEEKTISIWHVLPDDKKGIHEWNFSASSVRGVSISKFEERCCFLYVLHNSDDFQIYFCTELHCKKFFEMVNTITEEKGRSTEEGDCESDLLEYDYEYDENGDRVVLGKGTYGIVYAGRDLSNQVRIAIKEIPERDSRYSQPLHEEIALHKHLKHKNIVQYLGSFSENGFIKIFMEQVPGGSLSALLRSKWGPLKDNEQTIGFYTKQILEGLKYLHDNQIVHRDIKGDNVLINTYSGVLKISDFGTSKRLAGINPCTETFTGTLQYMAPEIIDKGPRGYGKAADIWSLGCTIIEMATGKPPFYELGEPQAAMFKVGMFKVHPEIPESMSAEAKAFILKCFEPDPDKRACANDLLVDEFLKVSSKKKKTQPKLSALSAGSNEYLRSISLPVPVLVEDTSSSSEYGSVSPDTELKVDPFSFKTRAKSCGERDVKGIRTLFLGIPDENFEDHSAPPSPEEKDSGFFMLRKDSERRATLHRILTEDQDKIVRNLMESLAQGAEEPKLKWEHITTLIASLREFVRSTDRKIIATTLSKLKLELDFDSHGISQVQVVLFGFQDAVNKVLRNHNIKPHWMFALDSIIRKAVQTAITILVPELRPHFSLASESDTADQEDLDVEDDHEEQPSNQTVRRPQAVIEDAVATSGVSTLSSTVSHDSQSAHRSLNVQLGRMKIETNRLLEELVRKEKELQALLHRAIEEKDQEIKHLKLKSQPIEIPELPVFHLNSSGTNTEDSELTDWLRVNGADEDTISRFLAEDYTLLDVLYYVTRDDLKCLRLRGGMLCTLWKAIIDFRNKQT
As to the kind of experiment: Determination of ASK1 inhibitor activity (IMAP FP assay of example 52 or AlphaLISA assay of example 53). (In general: Alpha assays give light when donor and acceptor beads are brought close together.)

In assay [1] the test system is CCI-induced mechanical allodynia. The conditions noted are these: rat CCI model.
Assay [2] relates to FCA-induced inflammatory mechanical hypersensitivity.

For orientation: pIC50 means the negative decadic logarithm of the IC50, by convention in mol/L. A high value points to a low IC50. At human ASK1 kinase, `O=C(NC1CCN(c2nc[nH]c3nccc2-3)CC1)c1ccc(N2CCCC2)cc1` [4-(1-pyrrolidinyl)-N-[1-(1H-pyrrolo[2,3-d]pyrimidin-4-yl)-4-piperidinyl]benzamide] had a pIC50 of 4.60.

`Cc1c[nH]c2ncnc(N3CCC(NC(=O)c4ccccc4)CC3)c12` [Example 17]: the “effect on mechanical allodynia caused by nerve injury in the CCI model” value in assay [1] is “partially reversed the mechanical allodynia”. Further, the “effect on inflammatory mechanical hypersensitivity caused by FCA (weightbearing)” value in assay [2] (dosed orally 24 hours after FCA injection, at 30 mg/kg) is reported as “partially reverse the inflammatory mechanical hypersensitivity”. Also, the “effect on inflammatory mechanical hypersensitivity (FIG. 2, weightbearing)” value in assay [2] (rats, 3 mg/kg po and 30 mg/kg po, 24 hours after intraplantar FCA, measured 1 hour after dosing) is listed as “reverses inflammatory mechanical hypersensitivity”.

Source of the values: patent US9585886B2, “ASK1 inhibiting pyrrolopyrimidine derivatives” (CALCHAN LIMITED, priority 2010, dated 2017).
